The values below come from US20070173539A1, “Use of malonomicin and analogs in fungicidal applications” (priority 2006, published 2007).

Format in all cases: in vivo
The subject of assay [1] is Colletotricum lagenarium (COLLLA). The assay can be described thus: Cucumber Anthracnose one day protectant (1DP). Particulars: cucumber (Bush Champion), sprayed to runoff, rate 200 ppm. On the procedure:
Compound formulation was accomplished by dissolving Compound I, II, III, IV, V, or VI in water with serial dilutions to obtain desired rates. Final treatment volumes were obtained by adding 0.1 percent aqueous Ethomeen T25 or 0.1 percent aqueous Spraymate X77+0.1 percent wt./vol. ammonium sulfate^+.
Cucumber Anthracnose (Colletotricum lagenarium; COLLLA) (1DP)
Cucumber plants (variety Bush Champion) were grown in plastic pots containing 100 percent Metro-Mix 360 (W.R Grace and Co.) until the first true leaf was 20-80 percent expanded. Each pot contained 1 seedling. These plants were then sprayed to runoff with the test compound at a rate of 200 ppm. After 24 hours, the plants were sprayed with an aqueous spore suspension of Colletotricum lagenarium (COLLLA). The plants were then transferred to a dew chamber for 24 hours, then to a growth chamber until disease developed on the untreated control plants.

Assay [2] has as its system Puccinia recondita f. sp. tritici PUCCRT. The assay can be described thus: Curative low volume test, wheat brown rust. Particulars: low volume 300 L/ha; for PUCCRT 1DC percent disease control: curative 1 day; for PUCCRT 3DC percent disease control: curative 3 days.
The test system of assay [3] is Leptosphaeria nodorum (LEPTNO). The assay can be described thus: Glume Blotch of Wheat one day protectant (1DP). As to conditions: wheat (Yuma), sprayed to runoff, rate 200 ppm. How it is done: Final treatment volumes were obtained by adding 0.1 percent aqueous Ethomeen T25 or 0.1 percent aqueous Spraymate X77+0.1 percent wt./vol. ammonium sulfate^+. Glume Blotch of Wheat (Leptosphaeria nodorum-[…]) Wheat (cultivar Yuma) was grown in plastic pots (6.2 cm×8.75 cm) containing 50 percent mineral soil, 50 percent Metro-Mix 360 (W.R Grace and Co.). until the seedlings were 10-20 cm tall. These plants were then sprayed to runoff with the test compound at a rate of 200 ppm. After 24 hours the test plants were inoculated by spraying with an aqueous spore suspension of Leptosphaeria nodorum ([…]). The plants were then transferred to a dew chamber for 24 hours, then to the greenhouse until disease developed on the untreated control plants.

The subject of assay [4] is Venturia inaequalis (VENTIN). Briefly: Apple Scab curative (compound added 2 days after inoculation). As to conditions: Curative at 200 ppm.
Assay [5] concerns Septoria tritici (SEPTTR). The assay can be described thus: Speckled Leaf Blotch of Wheat one day protectant (1DP). As to conditions: wheat (Monon), sprayed to runoff, rate 200 ppm. On the procedure: Final treatment volumes were obtained by adding 0.1 percent aqueous Ethomeen T25 or 0.1 percent aqueous Spraymate X77+0.1 percent wt./vol. ammonium sulfate^+. Speckled Leaf Blotch of Wheat (Septoria tritici-[…]) Wheat (cultivar Monon) was grown in plastic pots (6.2 cm×8.75 cm) containing 50 percent mineral soil, 50 percent Metro-Mix 360 (W.R Grace and Co.) until the seedlings were 10-20 cm tall. These plants were then sprayed to runoff with the test compound at a rate of 200 ppm. After 24 hours the test plants were inoculated by spraying with an aqueous spore suspension of Septoria tritici ([…]). The plants were then transferred to a dew chamber for 24 hours, then to the greenhouse until disease developed on the untreated control plants.

Assay [6] deals with Plasmopara viticola (PLASVI). Briefly: Downy Mildew of Grape one day protectant (1DP). Particulars: grape (Carignane), sprayed to runoff, rate 200 ppm. On the procedure: Final treatment volumes were obtained by adding 0.1 percent aqueous Ethomeen T25 or 0.1 percent aqueous Spraymate X77+0.1 percent wt./vol. ammonium sulfate^+. Downy Mildew of Grape (Plasmopara viticola-[…]) Vines (cultivar Carignane) were grown from seed in a soilless peat-based potting mixture “Metro-Mix 360” (W.R Grace and Co.) until the seedlings were 10-20 cm tall. These plants were then sprayed to runoff with the test compound at a rate of 200 ppm. After 24 hours the test plants were inoculated by spraying with an aqueous sporangia suspension of Plasmopara viticola ([…]). The plants were then transferred to a dew chamber for 24 hours, then to the greenhouse until disease developed on the untreated control plants.

For assay [7], the system named is Erysiphe graminis f. sp. tritici (ERYSGT). Briefly: Powdery Mildew of Wheat one day protectant (1DP). Particulars: wheat (Monon), sprayed to runoff, rate 200 ppm. How it is done: Final treatment volumes were obtained by adding 0.1 percent aqueous Ethomeen T25 or 0.1 percent aqueous Spraymate X77+0.1 percent wt./vol. ammonium sulfate^+. Powdery Mildew of Wheat (Erysiphe graminis f. sp. tritici-[…]) Wheat (cultivar Monon) was grown in plastic pots (6.2 cm×8.75 cm) containing 50 percent mineral soil, 50 percent Metro-Mix 360 (W.R Grace and Co.) until the seedlings were 10-20 cm tall. These plants were then sprayed to runoff with the test compound at a rate of 200 ppm. After 24 hours the test plants were inoculated with Erysiphe graminis f. sp. tritici ([…]) by dusting spores from stock plants onto the test plants. The plants were then transferred to the greenhouse until disease developed on the untreated control plants.

`NC[C@@H]1NC(=O)C(C(=O)CC(NC(=O)[C@@H](N)CO)(C(=O)O)C(=O)O)=C1O` [Compound I, {[(2S)-2-amino-3-hydroxypropanoyl]amino}{2-[(5S)-5-(aminomethyl)-4-hydroxy-2-oxo-2,5-dihydro-1H-pyrrol-3-yl]-2-oxoethyl}malonic acid]: the “COLLLA percent control of plant disease” value in assay [1] is given as “− (− = 0-29 percent control of plant disease)”. The “PUCCRT 1DC percent disease control” value in assay [2] (7.8 g ai/ha) is reported as “− (− = 0-29 percent control of plant disease)”; in assay [2] (15.6 g ai/ha), “− (− = 0-29 percent control of plant disease)”; in assay [2] (31.2 g ai/ha) it was “+ (+ = 30-74 percent control of plant disease)”; in assay [2] (62.5 g ai/ha) it was “+ (+ = 30-74 percent control of plant disease)”; in assay [2] (125 g ai/ha), “++ (++ = 75-100 percent control)”; in assay [2] (250 g ai/ha), “++ (++ = 75-100 percent control)”. For the same compound, the “PUCCRT 3DC percent disease control” value in assay [2] (7.8 g ai/ha) is recorded as “− (− = 0-29 percent control of plant disease)”; in assay [2] (15.6 g ai/ha), “+ (+ = 30-74 percent control of plant disease)”; in assay [2] (31.2 g ai/ha), “++ (++ = 75-100 percent control)”; in assay [2] (62.5 g ai/ha) it was “++ (++ = 75-100 percent control)”; in assay [2] (125 g ai/ha), “++ (++ = 75-100 percent control)”; in assay [2] (250 g ai/ha), “++ (++ = 75-100 percent control)”. Further, the “LEPTNO percent control of plant disease” value in assay [3] is listed as “+ (+ = 30-74 percent control of plant disease)”. In addition, the “VENTIN percent control of plant disease” value in assay [4] was “++ (++ = 75-100 percent control of plant disease)”. Further, the “SEPTTR percent control of plant disease” value in assay [5] is “++ (++ = 75-100 percent control of plant disease)”. The “PLASVI percent control of plant disease” value in assay [6] is “++ (++ = 75-100 percent control of plant disease)”. Moreover, the “ERYSGT percent control of plant disease” value in assay [7] is on record as “− (− = 0-29 percent control of plant disease)”.
